Biological target: T1, human RNR (histidine tagged human M1 and human M2 proteins) (Homo sapiens, UniProt P23921)
T1 construct: made in house; host or cells: Escherichia coli
T1 sequence (P23921 1-792): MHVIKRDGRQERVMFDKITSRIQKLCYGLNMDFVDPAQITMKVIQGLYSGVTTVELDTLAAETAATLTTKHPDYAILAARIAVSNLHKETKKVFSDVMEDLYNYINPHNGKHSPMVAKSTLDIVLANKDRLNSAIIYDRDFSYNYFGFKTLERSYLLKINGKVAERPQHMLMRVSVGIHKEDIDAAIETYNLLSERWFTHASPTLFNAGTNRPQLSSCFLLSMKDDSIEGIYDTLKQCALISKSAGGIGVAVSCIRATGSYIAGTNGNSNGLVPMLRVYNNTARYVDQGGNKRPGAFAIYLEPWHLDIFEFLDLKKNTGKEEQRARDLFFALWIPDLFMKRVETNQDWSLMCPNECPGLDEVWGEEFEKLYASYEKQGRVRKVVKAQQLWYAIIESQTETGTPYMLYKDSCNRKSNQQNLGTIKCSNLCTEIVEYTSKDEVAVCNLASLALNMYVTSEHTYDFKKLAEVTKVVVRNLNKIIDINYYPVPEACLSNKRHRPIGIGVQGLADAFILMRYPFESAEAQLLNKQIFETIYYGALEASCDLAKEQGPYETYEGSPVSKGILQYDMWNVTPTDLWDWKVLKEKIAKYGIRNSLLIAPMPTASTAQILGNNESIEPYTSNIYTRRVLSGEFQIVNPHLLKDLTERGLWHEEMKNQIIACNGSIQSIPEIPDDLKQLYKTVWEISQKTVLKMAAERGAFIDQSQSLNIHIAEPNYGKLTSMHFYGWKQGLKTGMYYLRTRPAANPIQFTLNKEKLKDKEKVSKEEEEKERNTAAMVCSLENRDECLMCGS
Assay: Human RNR inhibition effect (dCDP formation from CDP)
Type: biochemical
Settings: 10 μM CDP, 37° C. for 30 minutes, read-out: RNR inhibitory activity IC50
In short: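 His-tagged human M1 (isoform 1) and N-terminal 59-aa-truncated M2 (isoform 2), E. coli-expressed, Ni-purified, preincubated 20 min with compound (1% DMSO). Reaction with 10 μM CDP, 2 mM ATP, 0.24 mM NADPH, 6 mM DTT, 4 mM Mg acetate, 100 mM KCl, 50 mM HEPES pH 7.2, 30 min at 37° C. dCDP formed quantified by reverse-phase HPLC after heat stop.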

SMILES	IC50 [nM]
COc1c(S(=O)(=O)N[C@H](c2n[nH]c(=O)o2)[C@H](C)c2c(F)ccc(C)c2C)ccc(Cl)c1C(C)(C)OC(C)=O [Example 108, 2-(6-chloro-3-(N-((1S,2R)-2-(6-fluoro-2,3-dimethylphenyl)-1-(5-oxo-4,5-dihydro-1,3,4-oxadiazol-2-yl)propyl)sulfamoyl)-2-methoxyphenyl)propan-2-ylacetate]	430
Cc1ccc(F)c([C@@H](C)[C@H](NS(=O)(=O)c2ccc(Cl)cc2C#N)c2n[nH]c(=O)o2)c1C [Example 84, 4-chloro-2-cyano-N-((1S,2R)-2-(6-fluoro-2,3-dimethylphenyl)-1-(5-oxo-4,5-dihydro-1,3,4-oxadiazol-2-yl)propyl)benzenesulfonamide]	360
Cc1ccc(F)c([C@@H](C)[C@H](NS(=O)(=O)c2ccc(Cl)cc2C(N)=O)c2n[nH]c(=O)o2)c1 [Example 21, 5-chloro-2-(N-((1S,2R)-2-(2-fluoro-5-methylphenyl)-1-(5-oxo-4,5-dihydro-1,3,4-oxadiazol-2-yl)propyl)sulfamoyl)benzamide]	240
Cc1ccc(F)c([C@@H](C)[C@H](NS(=O)(=O)c2ccc3c(c2)N(C)CCC3)c2n[nH]c(=O)o2)c1C [Example 184, N-((1S,2R)-2-(6-fluoro-2,3-dimethylphenyl)-1-(5-oxo-4,5-dihydro-1,3,4-oxadiazol-2-yl)propyl)-1-methyl-1,2,3,4-tetrahydroquinoline-7-sulfonamide]	220
CC(O)c1cc(S(=O)(=O)N[C@H](c2n[nH]c(=O)o2)[C@H](C)c2cccc3c2CCC3)ccc1Cl (stereo partly drawn) [Example 231, 4-chloro-N-((1S,2R)-2-(2,3-dihydro-1H-inden-4-yl)-1-(5-oxo-4,5-dihydro-1,3,4-oxadiazol-2-yl)propyl)-3-(1-hydroxyethyl)benzensulfonamide]	650
Cc1ccc(F)c([C@@H](C)[C@H](NS(=O)(=O)c2ccc(C(F)(F)F)cc2C(N)=O)c2n[nH]c(=O)o2)c1C [Example 41, 2-(N-((1S,2R)-2-(6-fluoro-2,3-dimethylphenyl)-1-(5-oxo-4,5-dihydro-1,3,4-oxadiazol-2-yl)propyl)sulfamoyl)-5-(trifluoromethyl)benzamide]	100
Cc1c(Cl)ccc(F)c1[C@@H](C)[C@H](NS(=O)(=O)c1ccc(Cl)c2c1OCCC2(C)N)c1n[nH]c(=O)o1 (mixture of isomers) [Example 328, 4-amino-5-chloro-N-((1S,2R)-2-(3-chloro-6-fluoro-2-methylphenyl)-1-(5-oxo-4,5-dihydro-1,3,4-oxadiazol-2-yl)propyl)-4-methylchroman-8-sulfonamide]	110
Cc1ccc(F)c([C@@H](C)[C@H](NS(=O)(=O)c2cccc3c2CCNC3)c2n[nH]c(=O)o2)c1C [Example 281, N-((1S,2R)-2-(6-fluoro-2,3-dimethylphenyl)-1-(5-oxo-4,5-dihydro-1,3,4-oxadiazol-2-yl)propyl)-1,2,3,4-tetrahydroisoquinoline-5-sulfonamide]	760
Cc1ccc(F)c([C@@H](C)[C@H](NS(=O)(=O)c2ccc3c(c2)OCCO3)c2n[nH]c(=O)o2)c1C [Example 173, N-((1S,2R)-2-(6-fluoro-2,3-dimethylphenyl)-1-(5-oxo-4,5-dihydro-1,3,4-oxadiazol-2-yl)propyl)-2,3-dihydrobenzo[b][1,4]dioxin-6-sulfonamide]	130
COc1c(S(=O)(=O)N[C@H](c2n[nH]c(=O)o2)[C@H](C)c2cccc(C)c2C)ccc(Cl)c1C(C)O (stereo partly drawn) [Example 203, 4-chloro-N-((1S,2R)-2-(2,3-dimethylphenyl)-1-(5-oxo-4,5-dihydro-1,3,4-oxadiazol-2-yl)propyl)-3-(1-hydroxyethyl)-2-methoxybenzenesulfonamide]	180
Cc1c(Br)ccc(F)c1[C@@H](C)[C@H](NS(=O)(=O)c1ccc(Cl)cc1C(N)=O)c1n[nH]c(=O)o1 [Example 30, 2-(N-((1S,2R)-2-(3-bromo-6-fluoro-2-methylphenyl)-1-(5-oxo-4,5-dihydro-1,3,4-oxadiazol-2-yl)propyl)sulfamoyl)-5-chlorobenzamide]	150
Cc1ccc(F)c([C@@H](C)[C@H](NS(=O)(=O)c2cccc3c2OC(C)(C)CC3=O)c2n[nH]c(=O)o2)c1C [Example 97, N-((1S,2R)-2-(6-fluoro-2,3-dimethylphenyl)-1-(5-oxo-4,5-dihydro-1,3,4-oxadiazol-2-yl)propyl)-2,2-dimethyl-4-oxochroman-8-sulfonamide]	240
Cc1c(Br)ccc(F)c1[C@@H](C)[C@H](NS(=O)(=O)c1ccc(Cl)c2c1OCCC2=O)c1n[nH]c(=O)o1 [Example 124, N-((1S,2R)-2-(3-bromo-6-fluoro-2-methylphenyl)-1-(5-oxo-4,5-dihydro-1,3,4-oxadiazol-2-yl)propyl)-5-chloro-4-oxochroman-8-sulfonamide]	90
Cc1ccc(F)c([C@@H](C)[C@H](NS(=O)(=O)c2cc(F)c(Br)cc2F)c2n[nH]c(=O)o2)c1C [Example 339, 4-bromo-2,5-difluoro-N-((1S,2R)-(6-fluoro-2,3-dimethylphenyl)-1-(5-oxo-4,5-dihydro-1,3,4-oxadiazol-2-yl)propyl)benzenesulfonamide]	510
Cc1ccc(F)c([C@@H](C)[C@H](NS(=O)(=O)c2c(F)cc(Cl)cc2C(=O)O)c2n[nH]c(=O)o2)c1C [Example 219, 5-chloro-3-fluoro-2-(N-((1S,2R)-2-(6-fluoro-2,3-dimethylphenyl)-1-(5-oxo-4,5-dihydro-1,3,4-oxadiazol-2-yl)propyl)sulfamoyl)benzoic acid]	270
Cc1ccc(F)c([C@@H](C)[C@H](NS(=O)(=O)c2ccc(Cl)c(C(=O)N3CCCC3)n2)c2n[nH]c(=O)o2)c1C [Example 114, 5-chloro-N-((1S,2R)-2-(6-fluoro-2,3-dimethylphenyl)-1-(5-oxo-4,5-dihydro-1,3,4-oxadiazol-2-yl)propyl)-6-(pyrrolidine-1-carbonyl)pyridine-2-sulfonamide]	60
Cc1ccc(F)c([C@@H](C)[C@H](NS(=O)(=O)c2ncc(Cl)cc2C(=O)O)c2n[nH]c(=O)o2)c1C [Example 213, 5-chloro-2-(N-((1S,2R)-2-(6-fluoro-2,3-dimethylphenyl)-1-(5-oxo-4,5-dihydro-1,3,4-oxadiazol-2-yl)propyl)sulfamoyl)nicotinic acid]	500
CC(=O)c1cc(Cl)ccc1S(=O)(=O)N[C@H](c1n[nH]c(=O)o1)[C@H](C)c1c(F)ccc(C)c1C [Example 147, 2-acetyl-4-chloro-N-((1S,2R)-2-(6-fluoro-2,3-dimethylphenyl)-1-(5-oxo-4,5-dihydro-1,3,4-oxadiazol-2-yl)propyl)benzenesulfonamide]	270
Cc1cccc2cccc([C@@H](C)[C@H](NS(=O)(=O)c3ccc(Cl)c4c3OCCC4(F)F)c3n[nH]c(=O)o3)c12 [Example 81, 5-chloro-4,4-difluoro-N-((1S,2R)-2-(8-methylnaphthalen-1-yl)-1-(5-oxo-4,5-dihydro-1,3,4-oxadiazol-2-yl)propyl)chroman-8-sulfonamide]	280
COc1cc(Cl)ccc1S(=O)(=O)N[C@H](c1n[nH]c(=O)o1)[C@H](C)c1c(F)ccc(-c2cc[nH]n2)c1C [Example 301, 4-chloro-N-((1S,2R)-2-(6-fluoro-2-methyl-3-(1H-pyrazol-3-yl)phenyl)-1-(5-oxo-4,5-dihydro-1,3,4-oxadiazol-2-yl)propyl)-2-methoxybenzenesulfonamide]	290
Cc1cccc([C@@H](C)[C@H](NS(=O)(=O)c2ccc(Cl)cc2C(N)=O)c2n[nH]c(=O)o2)c1C [Example 3, 5-chloro-2-(N-((1S,2R)-2-(2,3-dimethylphenyl)-1-(5-oxo-4,5-dihydro-1,3,4-oxadiazol-2-yl)propyl)sulfamoyl)benzamide]	300
CCc1c(C)cccc1[C@@H](C)[C@H](NS(=O)(=O)c1ccc(Cl)cc1OC)c1n[nH]c(=O)o1 [Example 87, 4-chloro-N-((1S,2R)-2-(2-ethyl-3-methylphenyl)-1-(5-oxo-4,5-dihydro-1,3,4-oxadiazol-2-yl)propyl)-2-methoxybenzenesulfonamide]	840
Cc1ccc(F)c([C@@H](C)[C@H](NS(=O)(=O)c2cccc3c2OCCN3)c2n[nH]c(=O)o2)c1C [Example 280, N-((1S,2R)-2-(6-fluoro-2,3-dimethylphenyl)-1-(5-oxo-4,5-dihydro-1,3,4-oxadiazol-2-yl)propyl)-3,4-dihydro-2H-benzo[b][1,4]oxazine-8-sulfonamide]	420
